Data on one compound can be found in US8993282B2, “Carotenoid fermentation method” (JX Nippon Oil & Energy Corporation, priority 2008, dated 2015).

The subject of assay [1] is Paracoccus sp. strain Y-1071. In words: Glutamate supplementation, test tube culture (Pharmamedia medium), carotenoid by HPLC. It is filed as cell-based. As to the method:
(§1) In the examples, carotenoids were quantified by high performance liquid chromatography (HPLC) as follows.
(§2) Two columns of Wakosil-II 5 SIL-100 (φ4.6×250 mm) (Wako Pure Chemical Industries, Ltd., Japan) were connected to each other for use as a column. Elution was performed by flowing an n-hexane-tetrahydrofuran-methanol mixed solution (40:20:1), which was a mobile phase, at a flow rate of 1.0 mL/minute at a constant temperature around room temperature. The measurement was performed as follows. Samples were each dissolved in tetrahydrofuran and then diluted 100-fold with the mobile phase. Each dilution was injected in a volume of 20 μL. The column eluate was detected at a wavelength of 470 nm. As a reference for quantification, astaxanthin (SIGMA, Cat. No. A9335) was used. The astaxanthin concentration of the reference solution was determined using the following equation after measuring the absorbance (A) of the reference solution at 477 nm and the area percentage % (B) of the astaxanthin peak at the time of HPLC analysis under the above conditions.
Next, a medium of the following composition (sucrose 30 g/L, Pharmamedia 20 g/L, ammonium sulfate 1.5 g/L, potassium dihydrogenphosphate 1.5 g/L, disodium hydrogenphosphate 12-hydrate 3.8 g/L, calcium chloride dihydrate 0.1 g/L, magnesium sulfate 7-hydrate 4.5 g/L, iron sulfate 7-hydrate 5 g/L, biotin 1 mg/L, silicon-based defoaming agent 1 g/L) was dispensed in 8 ml volumes into cotton-plugged test tubes having an inner diameter of 18 mm (2 tubes in total). One of the tubes was supplemented with monosodium L-glutamate monohydrate to 30 mmol/L, while the other was supplemented with nothing as a control.
The resulting culture solution was then inoculated in 0.1 ml volumes into the two test tube media and cultured with shaking at 28° C. for 4 days at 300 spm.
(§3) Each culture solution was measured for its carotenoid concentration by HPLC.

Assay [2] deals with mutant Paracoccus sp. strain Y-1071. In words: Glutamate vs yeast extract supplementation, test tube culture (defined medium), carotenoid by HPLC. It is filed as cell-based. Here is the method: as §1
as §2, with “conditions. Astaxanthin concentration (mg/L)=A/2150×B×100” for “conditions.”
A medium of the following composition (glucose 20 g/L, dry yeast 5 g/L, potassium dihydrogenphosphate 1.5 g/L, disodium hydrogenphosphate 12-hydrate 3.8 g/L, calcium chloride dihydrate 0.1 g/L, magnesium sulfate 7-hydrate 0.7 g/L, iron sulfate 7-hydrate 3 g/L, pH 7.2) was dispensed in 8 ml volumes into cotton-plugged test tubes having an inner diameter of 18 mm and sterilized in an autoclave at 121° C. for 15 minutes to prepare a test tube medium for seed culture.
Next, a medium of the following composition (glucose 40 g/L, ammonium sulfate 1.5 g/L, potassium dihydrogenphosphate 0.54 g/L, dipotassium hydrogenphosphate 2,78 g/L, calcium chloride dihydrate 1 g/L, sodium chloride 3 g/L, magnesium sulfate 7-hydrate 0.7 g/L, iron sulfate 7-hydrate 5 g/L, zinc sulfate 7-hydrate 2 mg/L, cobalt chloride 6-hydrate 2 mg/L, copper sulfate 5-hydrate 1 mg/L, manganese sulfate 5-hydrate 4 mg/L, sodium molybdate dihydrate 2 mg/L, nickel sulfate 6-hydrate 1 mg/L, sodium selenate 0.5 mg/L, boric acid 5 mg/L, potassium iodide 1 mg/L, cyanocobalamin 1 mg/L, riboflavin 10 mg/L, calcium pantothenate 15 mg/L, pyridoxine hydrochloride salt 20 mg/L, thiamine hydrochloride salt […], ascorbic acid 30 mg/L, folic acid 1 mg/L, niacin 15 mg/L, p-aminobenzoic acid 10 mg/L, biotin 0.1 mg/L, myo-inositol 50 mg/L, choline 10 mg/L, polyether-based defoaming agent 0.2 g/L) was dispensed in 8 ml volumes into cotton-plugged test tubes having an inner diameter of 18 mm (4 tubes in total).
For use in this medium, glucose, inorganic salts, trace metals and vitamins were prepared separately. Glucose, inorganic salts and trace metals were sterilized by heating at 121° C. for 15 minutes, while vitamins were sterilized by filtration. Then, these 4 solutions were mixed together.
Further, one of the test tubes was supplemented with a heat-sterilized aqueous solution of monosodium L-glutamate monohydrate to 6 g/L (32 mmol/L), another tube was supplemented with a heat-sterilized aqueous yeast extract to 6 g/L, another tube was supplemented with the same yeast extract to 12 g/L, and the other tube was supplemented with nothing. Finally, the mediums in the tubes were aseptically supplemented with 12% aqueous ammonia to give pH 7.2.
The mutant Paracoccus sp. strain Y-1071 selected in Example 3 was inoculated into the test tube medium for seed culture and then cultured with shaking at 30° C. for 2 days at 300 spm. The resulting culture solution was then inoculated in 0.1 ml volumes into the 4 test tube media and cultured with shaking at 3(1° C. for 3 days at 300 spm.
as §3

Where [3] appears, read: Glutamic acid concentration 30 mmol/L, 28° C. for 4 days.

For the compound `N[C@@H](CCC(=O)O)C(=O)O` [Glutamic acid, glutamic acid], the “produced carotenoid concentration compared to the sample without glutamic acid” value in assay [1] (30 mmol/L) is “higher produced carotenoid concentration”. Moreover, in assay [1] (setting [3]), the 3-Hydroxyechinenone is recorded as 0.7 mg/L, the Adonixanthin was determined as 18.4 mg/L, the Astaxanthin was determined as 94.8 mg/L and the Asteroidenone was found to be 1.5 mg/L. Also, in assay [1] (setting [3]), the Canthaxanthin is 10.0 mg/L, the Echinenone was found to be 6.5 mg/L, the Phoenicoxanthin is listed as 24.8 mg/L and the “Total carotenoid” value is on record as 170.2 mg/L. In assay [1] (setting [3]), this compound yielded a Zeaxanthin of 0.28 mg/L, a β-Carotene of 13.1 mg/L and a β-Cryptoxanthin of 0.10 mg/L. Moreover, the “produced carotenoid concentration compared to the sample without glutamic acid” value in assay [2] (glutamic acid 6 g/L (32 mmol/L), yeast extract 6 g/L and 12 g/L) was “higher produced carotenoid concentration”. Moreover, in assay [2] (supplement 6 g/L, 3 days), the “Produced carotenoid concentration, 3-Hydroxyechinenone” value amounted to 0.2 mg/L; the “Produced carotenoid concentration, Adonixanthin” value worked out at 3.3 mg/L; the “Produced carotenoid concentration, Astaxanthin” value came to 13.7 mg/L; the “Produced carotenoid concentration, Asteroidenone” value is on record as 0.2 mg/L. Moreover, in assay [2] (supplement 6 g/L, 3 days), the “Produced carotenoid concentration, Canthaxanthin” value is given as 1.8 mg/L; the “Produced carotenoid concentration, Echinenone” value was 0.9 mg/L; the “Produced carotenoid concentration, Phoenicoxanthin” value is 4.1 mg/L; the “Produced carotenoid concentration, Total Carotenoid” value turned out to be 26.3 mg/L. Besides, in assay [2] (supplement 6 g/L, 3 days), the “Produced carotenoid concentration, Zeaxanthin” value amounted to 0.06 mg/L; the “Produced carotenoid concentration, β-Carotene” value amounted to 2.0 mg/L; the “Produced carotenoid concentration, β-Cryptoxanthin” value worked out at 0.02 mg/L.
